Assay results taken from patent publication US10022387B2, “Aza-heteroaryl compounds as PI3K-gamma inhibitors” (Incyte Corporation, priority 2015, dated 2018).
Structures can show the parent of a compound that is named as a salt.

Test system: Phosphorylated Ribosomal Protein S6 (RPS6) in THP-1 cells
Test: THP-1 RPS6 ELISA Assay
Format: cell-based
Conditions: Homo sapiens, 2 hours with compound, 10 nM MCP-1 for 15 minutes, read-out: THP p-RPS6 ELISA IC50
Experimental: To measure the Phosphorylated Ribosomal Protein S6 (RPS6) in cell lysates, THP-1 cells (Human Acute Monocytic Leukemia) are purchased from ATCC (Manassas, Va.) and maintained in RPMI with 10% FBS (Gibco/Life Technologies, Carlsbad, Calif.). For the assay, THP-1 cells are serum starved overnight in RPMI, then plated in RPMI (2×10^5 cells/well in 90 μL) into 96-well flat-bottom tissue culture treated plates (Corning, Corning, N.Y.), in the presence or absence of a concentration range of test compounds. Covered plates are incubated for 2 hours at 37° C., 5% CO2 then treated with or without 10 nM MCP-1 (MYBioSource, San Diego, Calif.) for 15 minutes at 37° C., 5% CO2. Plates are centrifuged at 1600 RPM and supernatants are removed. Cells are lysed in Lysis Buffer (Cell Signaling, Danvers, Mass.) with Protease Inhibitor (Calbiochem/EMD, Germany), PMSF (Sigma, St. Louis, Mo.), HALTS (Thermo Fisher, Rockford, Ill.) for 30 min on wet ice. Cell lysates are frozen at −80° C. before testing. The lysates are tested in the Human/Mouse/Rat Phospho-RPS6 ELISA (R&D Systems, Inc. Minn, Minn.). The plate is measured using a microplate reader (SpectraMax M5—Molecular Devices, LLC Sunnyvale, Calif.) set to 450 nm with a wavelength correction of 540. IC50 determination is performed by fitting the curve of inhibitor percent inhibition versus the log of the inhibitor concentration using the GraphPad Prism 5.0 software.

Structure (SMILES)	IC50 [µM]
CCS(=O)(=O)n1ncc2ccc(-c3ccc4nc(-c5nc6ccccc6[nH]5)oc4c3)cc21 [Example 52, 6-[1-(Ethylsulfonyl)-1H-indazol-6-yl]-2-(1H-benzimidazol-2-yl)-1,3-benzoxazole]	≥ 5
CCS(=O)(=O)Nc1cc(-c2ccc3nc(-c4nc5ccccc5[nH]4)oc3c2)cnc1OC [Example 79, N-(5-(2-(1H-Benzo[d]imidazol-2-yl)benzo[d]oxazol-6-yl)-2-methoxypyridin-3-yl)ethanesulfonamide bis(trifluoroacetate)]	< 1
OC(c1cncc(-c2ccc3nc(-c4nc5ccccc5[nH]4)oc3c2)c1)C(F)(F)F (stereo not shown) [Example 74, 1-(5-(2-(1H-Benzo[d]imidazol-2-yl)benzo[d]oxazol-6-yl)pyridin-3-yl)-2,2,2-trifluoroethanol bis(trifluoroacetate)]	≥ 5
CCS(=O)(=O)Nc1cncc(-c2ccc3nc(-c4nc5ccccc5[nH]4)oc3c2)c1 [Example 18, N-(5-(2-(1H-Benzo[d]imidazol-2-yl)benzo[d]oxazol-6-yl)pyridin-3-yl)ethanesulfonamide]	≥ 5
COc1cncc(-c2ccc3nc(-c4cnc(C5CC5)[nH]4)oc3c2)c1 [Example 42, 2-(2-Cyclopropyl-1H-imidazol-5-yl)-6-(5-methoxypyridin-3-yl)benzo[d]oxazole]	≥ 5
CCS(=O)(=O)Nc1cc(-c2ccc3nc(-c4nc5ccccc5[nH]4)oc3c2)cnc1F [Example 27, N-(5-(2-(1H-Benzo[d]imidazol-2-yl)benzo[d]oxazol-6-yl)-2-fluoropyridin-3-yl)ethanesulfonamide]	< 1
O=S(=O)(c1cncc(-c2ccc3nc(-c4nc5ccccc5[nH]4)oc3c2)c1)N1CCC(O)C1 (stereo not shown) [Example 58, 1-({5-[2-(1H-Benzimidazol-2-yl)-1,3-benzoxazol-6-yl]pyridin-3-yl}sulfonyl)pyrrolidin-3-ol bis(trifluoroacetate)]	≥ 5
COc1cncc(-c2ccc3nc(-c4nc5ccccc5[nH]4)oc3c2)c1 [Example 4, 2-(1H-Benzo[d]imidazol-2-yl)-6-(5-methoxypyridin-3-yl)benzo[d]oxazole trifluoroacetate]	< 5
O=S(=O)(Nc1cncc(-c2ccc3nc(-c4nc5ccccc5[nH]4)oc3c2)c1)c1cccc(F)c1 [Example 19, N-(5-(2-(1H-Benzo[d]imidazol-2-yl)benzo[d]oxazol-6-yl)pyridin-3-yl)-3-fluorobenzene-sulfonamide]	< 5

Other lines, results leading:

IC50 [µM]	Structure (SMILES)
< 1	CCS(=O)(=O)Nc1cc(-c2ccc3nc(-c4nc5ccccc5[nH]4)oc3c2)cnc1Cl [Example 26, N-(5-(2-(1H-Benzo[d]imidazol-2-yl)benzo[d]oxazol-6-yl)-2-chloropyridin-3-yl)ethanesulfonamide]
≥ 5	CCn1ncc2ncc(-c3ccc4nc(-c5nc6ccccc6[nH]5)oc4c3)cc21 [Example 57, 6-[2-(1H-Benzimidazol-2-yl)-1,3-benzoxazol-6-yl]-1-ethyl-1H-pyrazolo[4,3-b]pyridine tris(trifluoroacetate)]
≥ 5	CCCc1nc(-c2nc3ccc(-c4cncc(NS(=O)(=O)CC)c4)cc3o2)[nH]c1C [Example 64, N-(5-(2-(5-Methyl-4-propyl-1H-imidazol-2-yl)benzo[d]oxazol-6-yl)pyridin-3-yl)ethanesulfonamide bis(trifluoroacetate)]
< 5	CN(C)S(=O)(=O)c1cncc(-c2ccc3nc(-c4nc5ccccc5[nH]4)oc3c2)c1 [Example 37, 5-[2-(1H-benzimidazol-2-yl)-1,3-benzoxazol-6-yl]-N,N-dimethylpyridine-3-sulfonamide]
< 1	O=S(=O)(Nc1cncc(-c2ccc3nc(-c4nc5ccccc5[nH]4)oc3c2)c1)c1ccc(F)cc1 [Example 17, N-(5-(2-(1H-Benzo[d]imidazol-2-yl)benzo[d]oxazol-6-yl)pyridin-3-yl)-4-fluorobenzenesulfonamide]
< 5	OC(c1cncc(-c2ccc3nc(-c4nc5c([nH]4)CCCC5)oc3c2)c1)C(F)(F)F (stereo not shown) [Example 68, 2,2,2-Trifluoro-1-(5-(2-(4,5,6,7-tetrahydro-1H-benzo[d]imidazol-2-yl)benzo[d]oxazol-6-yl)pyridin-3-yl)ethanol]

Target: PI3Kδ (p110δ/p85α) Recombinant Human Protein (Homo sapiens (Human), UniProt O00329)
Sequence (O00329 whole entry): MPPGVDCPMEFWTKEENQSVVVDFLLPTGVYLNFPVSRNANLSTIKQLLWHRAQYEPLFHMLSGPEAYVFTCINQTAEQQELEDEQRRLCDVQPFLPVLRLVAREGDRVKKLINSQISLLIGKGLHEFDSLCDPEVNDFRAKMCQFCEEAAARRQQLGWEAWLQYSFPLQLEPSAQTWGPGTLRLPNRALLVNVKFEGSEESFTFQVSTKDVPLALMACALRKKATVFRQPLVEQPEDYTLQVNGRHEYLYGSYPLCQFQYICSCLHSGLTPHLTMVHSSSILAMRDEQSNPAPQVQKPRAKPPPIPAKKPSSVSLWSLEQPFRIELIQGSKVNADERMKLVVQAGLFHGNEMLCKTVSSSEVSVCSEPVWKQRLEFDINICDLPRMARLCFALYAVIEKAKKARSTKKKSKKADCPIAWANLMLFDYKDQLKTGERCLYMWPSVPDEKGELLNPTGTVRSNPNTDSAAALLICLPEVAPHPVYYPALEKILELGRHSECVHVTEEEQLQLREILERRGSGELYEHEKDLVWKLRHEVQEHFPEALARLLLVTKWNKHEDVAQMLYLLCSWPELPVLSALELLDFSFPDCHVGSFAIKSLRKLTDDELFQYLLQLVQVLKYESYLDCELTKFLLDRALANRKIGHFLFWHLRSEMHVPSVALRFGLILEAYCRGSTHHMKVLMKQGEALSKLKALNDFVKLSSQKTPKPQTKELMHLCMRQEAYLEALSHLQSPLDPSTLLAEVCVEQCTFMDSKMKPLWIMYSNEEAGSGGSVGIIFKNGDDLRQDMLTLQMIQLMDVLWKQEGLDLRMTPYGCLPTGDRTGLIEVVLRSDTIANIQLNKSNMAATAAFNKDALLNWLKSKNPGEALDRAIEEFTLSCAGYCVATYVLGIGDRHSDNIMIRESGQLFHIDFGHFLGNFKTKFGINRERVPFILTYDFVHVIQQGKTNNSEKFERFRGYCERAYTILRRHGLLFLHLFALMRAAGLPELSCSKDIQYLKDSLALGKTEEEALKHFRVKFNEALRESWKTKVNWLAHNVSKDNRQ
Sequence (P27986 whole entry partner): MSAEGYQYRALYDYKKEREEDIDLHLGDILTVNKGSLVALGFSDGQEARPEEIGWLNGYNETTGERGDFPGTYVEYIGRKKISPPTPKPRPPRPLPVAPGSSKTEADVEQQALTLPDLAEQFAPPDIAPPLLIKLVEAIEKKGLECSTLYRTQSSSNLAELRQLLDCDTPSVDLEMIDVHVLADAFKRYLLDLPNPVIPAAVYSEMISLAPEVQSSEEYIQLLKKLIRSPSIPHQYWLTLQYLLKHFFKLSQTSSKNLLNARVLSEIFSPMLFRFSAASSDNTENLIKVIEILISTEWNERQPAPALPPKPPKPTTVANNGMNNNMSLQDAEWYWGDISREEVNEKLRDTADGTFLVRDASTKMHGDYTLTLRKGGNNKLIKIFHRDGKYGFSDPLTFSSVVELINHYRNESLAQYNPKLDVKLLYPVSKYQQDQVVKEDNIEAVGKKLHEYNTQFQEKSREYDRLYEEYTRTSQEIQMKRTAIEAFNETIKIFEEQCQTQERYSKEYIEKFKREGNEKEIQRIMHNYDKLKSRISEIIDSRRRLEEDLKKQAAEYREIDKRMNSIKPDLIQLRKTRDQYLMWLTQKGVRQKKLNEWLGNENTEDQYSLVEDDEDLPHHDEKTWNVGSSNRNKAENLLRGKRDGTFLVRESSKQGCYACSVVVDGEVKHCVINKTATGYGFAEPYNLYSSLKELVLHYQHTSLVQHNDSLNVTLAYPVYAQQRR
Test: PI3Kδ Scintillation Proximity Assay
Format: biochemical
Conditions: 20 μM PIP2, 2 μM ATP, 3.4 nM PI3Kδ, 120 min; read-out: PI3K-delta SPA IC50
Excerpt: [γ-^33P]ATP (10 mCi/mL) and Wheat Germ Agglutinin (WGA) YSi SPA Scintillation Beads was purchased from Perkin-Elmer (Waltham, Mass.). Lipid kinase substrate, D-myo-Phosphatidylinositol 4,5-bisphosphate (PtdIns(4,5)P2)D (+)-sn-1,2-di-O-octanoylglyceryl, 3-O-phospho linked (PIP2), CAS 204858-53-7, was purchased from Echelon Biosciences (Salt Lake City, Utah). PI3Kδ (p110δ/p85α) Recombinant Human Protein was purchased from Eurofins (St. Charles, Mo.). ATP, MgCl2, DTT, EDTA, MOPS and CHAPS were purchased from Sigma-Aldrich (St. Louis, Mo.).
The kinase reaction was conducted in polystyrene 384-well Greiner Bio-one white plate from Thermo Fisher Scientific in a final volume of 25 μL. Inhibitors were first diluted serially in DMSO and added to the plate wells before the addition of other reaction components. The final concentration of DMSO in the assay was 2%. The PI3Kδ assay was carried out at room temperature in 20 mM MOPS, pH 6.7, 10 mM MgCl2, 5 mM DTT and CHAPS 0.03%. Reactions were initiated by the addition of ATP, the final reaction mixture consisted of 20 μM PIP2, 2 μM ATP, 0.5 μCi [γ-^33P] ATP, 3.4 nM PI3Kδ. […] After the plate sealing, plates were shaken overnight at room temperature and centrifuged at 1500 rpm for 10 min, the radioactivity of the product was determined by scintillation counting on Topcount (Perkin-Elmer). […]

Structure (SMILES)	IC50 [µM]
CCS(=O)(=O)Nc1cncc(-c2ccc3nc(-c4nc5ccccc5[nH]4)oc3c2)c1 [Example 18, N-(5-(2-(1H-Benzo[d]imidazol-2-yl)benzo[d]oxazol-6-yl)pyridin-3-yl)ethanesulfonamide]	< 1
